Reference: ChEMBL document CHEMBL2321663, “Alkaloids from Sri Lankan curry-leaf (Murraya koenigii) display melanogenesis inhibitory activity: structures of karapinchamines A and B” (Bioorg Med Chem, 2013)

Columns and labels:
[1] = Cytotoxicity against mouse theophylline-induced B16-4A5 cells assessed as cell viability at 3 uM after 72 hrs by WST8 assay relative to control; type: cell-based; conditions: read-out: Activity
[2] = Inhibition of theophylline-induced melanogenesis in mouse B16-4A5 cells at 3 uM after 72 hrs by spectrophotometric analysis relative to control; type: functional; conditions: B16-4A5, 72 h
[3] = target: T1, Tyrosinase (Agaricus bisporus) (UniProt O42713); assay: Inhibition of mushroom tyrosinase using L-DOPA as substrate after at 3 uM after 5 mins relative to control
T1 sequence (whole entry): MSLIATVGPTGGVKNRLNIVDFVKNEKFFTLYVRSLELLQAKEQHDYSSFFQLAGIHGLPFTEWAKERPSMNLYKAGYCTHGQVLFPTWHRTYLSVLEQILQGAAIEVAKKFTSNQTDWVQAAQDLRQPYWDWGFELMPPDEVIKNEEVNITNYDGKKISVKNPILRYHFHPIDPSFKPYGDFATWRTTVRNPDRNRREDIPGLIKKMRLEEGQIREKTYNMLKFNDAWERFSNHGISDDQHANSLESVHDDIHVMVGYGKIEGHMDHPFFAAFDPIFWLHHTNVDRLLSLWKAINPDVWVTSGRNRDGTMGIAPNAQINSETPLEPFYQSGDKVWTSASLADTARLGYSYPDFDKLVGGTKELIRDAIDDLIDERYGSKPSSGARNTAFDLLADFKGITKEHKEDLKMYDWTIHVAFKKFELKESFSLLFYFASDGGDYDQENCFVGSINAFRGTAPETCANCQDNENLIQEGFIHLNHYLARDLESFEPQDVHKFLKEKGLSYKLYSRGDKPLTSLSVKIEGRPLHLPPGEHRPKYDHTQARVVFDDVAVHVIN

[4] = target: T1, Tyrosinase (Agaricus bisporus); assay: Inhibition of mushroom tyrosinase using L-DOPA as substrate after at 10 uM after 5 mins relative to control
[5] = Cytotoxicity against mouse theophylline-induced B16-4A5 cells assessed as cell viability at 10 uM after 72 hrs by WST8 assay relative to control; type: cell-based; conditions: read-out: Activity
[6] = target: T1, Tyrosinase (Agaricus bisporus); assay: Inhibition of mushroom tyrosinase using L-DOPA as substrate after at 1 uM after 5 mins relative to control
[7] = Cytotoxicity against mouse theophylline-induced B16-4A5 cells assessed as cell viability at 30 uM after 72 hrs by WST8 assay relative to control; type: cell-based; conditions: read-out: Activity
[8] = Inhibition of theophylline-induced melanogenesis in mouse B16-4A5 cells after 72 hrs by spectrophotometric analysis relative to control; type: functional, cell-based
[9] = Inhibition of theophylline-induced melanogenesis in mouse B16-4A5 cells at 30 uM after 72 hrs by spectrophotometric analysis relative to control; type: functional; conditions: B16-4A5, 72 h
[10] = target: T1, Tyrosinase (Agaricus bisporus); assay: Inhibition of mushroom tyrosinase using L-DOPA as substrate after at 30 uM after 5 mins relative to control
[11] = Inhibition of theophylline-induced melanogenesis in mouse B16-4A5 cells at 10 uM after 72 hrs by spectrophotometric analysis relative to control; type: functional; conditions: B16-4A5, 72 h
[12] = target: T1, Tyrosinase (Agaricus bisporus); assay: Inhibition of mushroom tyrosinase using L-DOPA as substrate after at 100 uM after 5 mins relative to control
[13] = Cytotoxicity against mouse theophylline-induced B16-4A5 cells assessed as cell viability at 1 uM after 72 hrs by WST8 assay relative to control; type: cell-based; conditions: read-out: Activity
[14] = Inhibition of theophylline-induced melanogenesis in mouse B16-4A5 cells at 1 uM after 72 hrs by spectrophotometric analysis relative to control; type: functional; conditions: B16-4A5, 72 h
[15] = Inhibition of theophylline-induced melanogenesis in mouse B16-4A5 cells at 300 uM after 72 hrs by spectrophotometric analysis relative to control; type: functional; conditions: B16-4A5, 72 h
[16] = Inhibition of theophylline-induced melanogenesis in mouse B16-4A5 cells at 1000 uM after 72 hrs by spectrophotometric analysis relative to control; type: functional; conditions: B16-4A5, 72 h
[17] = Inhibition of theophylline-induced melanogenesis in mouse B16-4A5 cells at 100 uM after 72 hrs by spectrophotometric analysis relative to control; type: functional; conditions: B16-4A5, 72 h

Structure (SMILES) | viability at 72 h, 3 µM [1] [%] | inhibition at 3 µM [2] [%] | inhibition [3] [%] | inhibition [4] [%] | viability at 72 h, 10 µM [5] [%] | inhibition [6] [%] | viability at 72 h, 30 µM [7] [%] | IC50 [8] [µM] | inhibition at 30 µM [9] [%] | inhibition [10] [%] | inhibition at 10 µM [11] [%] | inhibition [12] [%] | viability at 72 h, 1 µM [13] [%] | inhibition at 1 µM [14] [%] | inhibition at 300 µM [15] [%] | inhibition at 1000 µM [16] [%] | inhibition at 100 µM [17] [%]
CC(C)=CCCC1(C)C=Cc2c(ccc3c2[nH]c2ccc(C)cc23)O1 (centres undefined) | 117 | 60 | -0.7 | -1.1 | 103 | 7.4 | 63.9 | 2.2 | 78.4 | -0.3 | 85.2 | -3.4 | 110 | 25.9 |  |  | 
COc1cccc2c1[nH]c1c3c(c(C)cc12)OC(C)(CCC=C(C)C)C=C3 (centres undefined) | 97.3 | 40.4 | -2.8 | -2.8 | 73.8 | -1 | 46.3 | 3.8 |  | 2.7 | 71.8 | -0.8 | 101 | 6.8 |  |  | 
COc1ccc2c(c1)[nH]c1c3c(c(C)cc12)O[C@](C)(CCC=C(C)C)C=C3 | 98.7 | 8.7 | 0.1 | 0.1 | 94.9 | 0.1 | 66.3 | 15.7 | 58.3 | 0.9 | 40.8 | 4.2 | 105 | 10.9 |  |  | 
Oc1cccc2[nH]c3ccccc3c12 | 100 | 32.9 | 0.3 | 0.5 | 104 | 0.4 | 131 | 13.5 | 66.9 | 0.9 | 36.1 | 3.3 | 101 | 24.9 |  |  | 
Cc1cc2c3ccc(O)cc3n3c2c2c1O[C@@]1(C)CC[C@H]([C@H]2C1)C3(C)C (relative stereo) | 94.4 | 50.8 | -0.6 | 3.5 | 76.8 | -1.3 | 71.1 | 2.9 | 74.3 | 15.3 | 66 | 20.2 | 101 | 26.9 |  |  | 
OC[C@H]1O[C@@H](Oc2ccc(O)cc2)[C@H](O)[C@@H](O)[C@@H]1O [ARBUTIN] |  |  |  |  |  |  |  | 174 | 20.4 |  |  |  |  |  | 61.5 | 83.7 | 38.1
c1ccc2c(c1)[nH]c1ccccc12 [CARBAZOLE] | 108 | 33.5 | -1.8 | -2.2 | 105 | 1 | 94.2 | > 100 | 33.8 | 1.7 | 36.8 | 0.1 | 108 | 31.3 |  |  | 
COc1ccc2c([nH]c3cc(O)c(C)cc32)c1C/C=C(\C)CCC=C(C)C [EUCHRESTINE B] | 102 | 40.6 | -4.4 | -4.3 | 83.7 | -6.5 | 1.9 | 4.1 |  | -6.4 | 74.2 | -1.1 | 105 | 18.2 |  |  | 
CC(C)=CCC/C(C)=C/Cc1c(O)ccc2[nH]c3ccc(C)cc3c12 [EUSTIFOLINE C] | 96.5 | 25.2 | 2.7 | 2.3 | 79.2 | 1 | 9.9 | 8.3 |  | 5.9 | 55.9 | 16.1 | 104 | 19.7 |  |  | 
COc1ccc2[nH]c3c4c(c(C)cc3c2c1)OC(C)(C)C=C4 [KOENIMBINE] | 92.4 | 77 | -1 | -0.1 | 66.6 | 0.7 | 37.9 | 1.2 |  | 1 | 86.2 | 4.3 | 114 | 42.5 |  |  | 
CC(C)=CCCC1(C)C=Cc2c(c(C)cc3c2[nH]c2ccccc23)O1 (centres undefined) [MAHANIMBINE] | 68.7 | 63.9 | -3.2 | -0.4 | 34.4 | -1.3 | 35.1 | 1.4 |  | 2.7 |  | 6.2 | 94.3 | 43.3 |  |  | 
